US20240317735A1, “HYDROISOQUINOLINE OR HYDRONAPHTHYRIDINE COMPOUNDS FOR THE TREATMENT OF AUTOIMMUNE DISEASE” (Hoffmann-La Roche Inc., priority 2020, published 2024)

Target: T1, TLR9 (Homo sapiens, UniProt Q9NR96)
T1 sequence (Q9NR96 26-1032): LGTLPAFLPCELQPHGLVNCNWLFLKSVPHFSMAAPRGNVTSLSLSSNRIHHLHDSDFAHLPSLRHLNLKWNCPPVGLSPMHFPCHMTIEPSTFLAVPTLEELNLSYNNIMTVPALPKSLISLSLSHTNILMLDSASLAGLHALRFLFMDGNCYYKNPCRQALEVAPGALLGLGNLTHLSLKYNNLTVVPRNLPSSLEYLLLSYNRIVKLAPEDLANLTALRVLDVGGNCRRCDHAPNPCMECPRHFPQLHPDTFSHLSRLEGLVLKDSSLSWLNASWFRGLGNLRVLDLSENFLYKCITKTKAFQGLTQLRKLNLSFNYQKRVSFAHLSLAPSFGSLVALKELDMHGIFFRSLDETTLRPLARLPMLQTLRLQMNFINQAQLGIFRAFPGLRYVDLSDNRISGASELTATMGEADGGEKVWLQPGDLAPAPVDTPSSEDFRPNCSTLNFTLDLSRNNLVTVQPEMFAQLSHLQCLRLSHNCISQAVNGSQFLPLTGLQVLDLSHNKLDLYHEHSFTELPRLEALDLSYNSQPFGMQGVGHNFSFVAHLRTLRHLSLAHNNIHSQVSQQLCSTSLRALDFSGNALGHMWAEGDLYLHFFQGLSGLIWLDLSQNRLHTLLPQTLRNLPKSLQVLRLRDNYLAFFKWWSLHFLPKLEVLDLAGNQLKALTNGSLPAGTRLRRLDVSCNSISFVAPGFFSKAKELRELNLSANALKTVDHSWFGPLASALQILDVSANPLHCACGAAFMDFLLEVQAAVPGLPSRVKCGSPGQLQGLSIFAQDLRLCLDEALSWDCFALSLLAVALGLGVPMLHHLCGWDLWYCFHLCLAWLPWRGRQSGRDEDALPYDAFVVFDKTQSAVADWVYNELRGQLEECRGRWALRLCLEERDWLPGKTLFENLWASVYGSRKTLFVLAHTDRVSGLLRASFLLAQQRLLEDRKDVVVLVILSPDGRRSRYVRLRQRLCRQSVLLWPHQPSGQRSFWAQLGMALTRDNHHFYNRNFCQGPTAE
Assay: HEK293-Blue-hTLR-9 cells assay (SEAP reporter, ODN2006 stimulation)
Type: cell-based
Set-up: host or cells: HEK293 (HEK-Blue hTLR9)
Conditions: HEK293-Blue-hTLR9 cells, ODN2006, 20 hrs; read-out: HEK/hTLR9 IC50
Outline: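 Antagonist format: cells in DMEM/10% FBS exposed to serially diluted compound (1% DMSO) plus ODN2006 stimulation for 20 h at 37°C. Supernatant SEAP measured with QUANTI-Blue substrate, 2 h at 37°C, absorbance 620–655 nm.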

IC50 | Compound
298 nM | C[C@H]1CN(c2ccnc3c2cnn3C)Cc2ccc(N3CCN(C(=O)C4CNCCO4)CC3)cc21 (stereo partly drawn) [Example 12, morpholin-2-yl-[4-[(4R)-4-methyl-2-(1-methylpyrazolo[3,4-b]pyridin-4-yl)-3,4-dihydro-1H-isoquinolin-6-yl]piperazin-1-yl]methanone]
360 nM | C[C@H]1CN(c2ccnc3c2cnn3C)Cc2ccc(N3C[C@@H](N)[C@H](O)C3)cc21 [Example 46, trans-4-amino-1-[(4R)-4-methyl-2-(1-methylpyrazolo[3,4-b]pyridin-4-yl)-3,4-dihydro-1H-isoquinolin-6-yl]pyrrolidin-3-ol]
121 nM | Cc1cc(N2Cc3ccc(N4CCC(C)(N)CC4)nc3[C@@H](C)C2)c2cnn(C)c2n1 [Example 59, 4-methyl-1-[(8S)-6-(1,6-dimethylpyrazolo[3,4-b]pyridin-4-yl)-8-methyl-7,8-dihydro-5H-1,6-naphthyridin-2-yl]piperidin-4-amine]
399 nM | C[C@H]1CN(c2ccnc3c2cnn3C)Cc2ccc(N3CCC(O)(CN(C)C)CC3)cc21 [Example 13, 4-[(dimethylamino)methyl]-1-[(4R)-4-methyl-2-(1-methylpyrazolo[3,4-b]pyridin-4-yl)-3,4-dihydro-1H-isoquinolin-6-yl]piperidin-4-ol]
105 nM | Cc1cc(N2Cc3ccc(OC[C@@H]4CNCCN4)cc3[C@@H](C)C2)c2cnn(C)c2n1 [Example 31, (4R)-2-(1,6-dimethylpyrazolo[3,4-b]pyridin-4-yl)-4-methyl-6-[[(2S)-piperazin-2-yl]methoxy]-3,4-dihydro-1H-isoquinoline]
158 nM | Cc1cc(N2Cc3ccc(N4CCC(O)(CN(C)C)CC4)cc3[C@@H](C)C2)c2cnn(C)c2n1 [Example 14, 4-[(dimethylamino)methyl]-1-[(4R)-2-(1,6-dimethylpyrazolo[3,4-b]pyridin-4-yl)-4-methyl-3,4-dihydro-1H-isoquinolin-6-yl]piperidin-4-ol]
376 nM | C[C@H]1CN(c2ccnc3c2cnn3C)Cc2ccc(N3CCN[C@@H](CO)C3)cc21 [Example 50, [(2R)-4-[(4R)-4-methyl-2-(1-methylpyrazolo[3,4-b]pyridin-4-yl)-3,4-dihydro-1H-isoquinolin-6-yl]piperazin-2-yl]methanol]
249 nM | Cc1cc(N2Cc3ccc(OC4CCNCC4)nc3[C@@H](C)C2)c2cnn(C)c2n1 [Example 64, (8S)-6-(1,6-dimethylpyrazolo[3,4-b]pyridin-4-yl)-8-methyl-2-(4-piperidyloxy)-7,8-dihydro-5H-1,6-naphthyridine]
199 nM | Cc1cc(N2Cc3ccc(N4CCC(N)CC4)nc3[C@@H](C)C2)c2cnn(C)c2n1 [Example 58, 1-[(8S)-6-(1,6-dimethylpyrazolo[3,4-b]pyridin-4-yl)-8-methyl-7,8-dihydro-5H-1,6-naphthyridin-2-yl]piperidin-4-amine]

Compound | IC50
C[C@H]1CN(c2ccnc3c2cnn3C)Cc2ccc(OC[C@@H]3CNCCN3)cc21 [Example 19, (4R)-4-methyl-2-(1-methylpyrazolo[3,4-b]pyridin-4-yl)-6-[[(2S)-piperazin-2-yl]methoxy]-3,4-dihydro-1H-isoquinoline] | 101 nM
